1 compound from US8603945B2, “Methods and compositions for providing salicyclic acid-independent pathogen resistance in plants” (The Regents of the University of California, priority 2008, dated 2013) can be followed below.

Entries after “also recorded” stand apart in the source; their conditions may differ. Where two headings read alike, the source gives them in different places.

In series [1] the test system is −333_CaBP22::GUS seedlings. Description: toxic effects on plants after spraying aerial parts of seedlings. It counts as in vivo. How it is done:
(§1) A: Extent of disease susceptibility/resistance determined by counting the numbers of Peronospora sproangiophores of 17 day old seedlings 7 d after spray-inoculation with 5E4 HpNoco2 spores/ml. 24 h prior to infection with Noco2 the aerial parts of the soil grown seedlings were sprayed with the indicated concentrations of DCA (compound 67) or SA. Three replicates each with at least 30 seedlings per treatment gave similar results. […] Concentrations higher than 100 μM caused cell death, as indicated by reduced GUS staining.

The test system of another series is CaBP22. As to the kind of experiment: semiquantitative RT-PCR of CaBP22 expression. It counts as in vivo, Arabidopsis. As for the experimental part: […] ACT8 is shown as loading control. […] (B) Two week old seedlings were sprayed with virulent HpNoco2 24 hours after pre-treatment with 100 uM DCA. Spores were counted 7 days after spray infection. Means and standard errors were calculated from three independent experiments. Mann-Whitney U test (p<0.05) was used to determine significant differences among mutants.
As the CaBP22-induction by DCA is blocked in the wrky70 mutant, this compound can interfere with a signaling component that acts upstream from WRKY70 transcription and either independently of downstream from SA. Based on this DCA targets a WRKY70-dependent branch of the defense signaling network.

The subject of another series is WRKY70. As to the kind of experiment: semiquantitative RT-PCR of WRKY70 expression. It counts as in vivo, Arabidopsis.
For series [2], the system named is HpNoco2 (virulent Peronospora). As to the kind of experiment: HpNoco2 disease resistance assay on soil grown seedlings (spore / sporangiophore counts 7 dpi). It counts as in vivo, Arabidopsis. How it is done:
(A) RT-PCR analysis of CaBP22 and WRKY70 expression in Col-0 (wild type) and mutant backgrounds 24 hours after spraying 2 week old seedlings with water (un), 1 mM SA, or 100 μM DCA. ACT8 is shown as loading control. […] (B) Two week old seedlings were sprayed with virulent HpNoco2 24 hours after pre-treatment with 100 uM DCA. Spores were counted 7 days after spray infection. Means and standard errors were calculated from three independent experiments. Mann-Whitney U test (p<0.05) was used to determine significant differences among mutants.
as §1
(A) Chemical structures of DCA analogs analyzed. (B) Fluorometric analysis of GUS activities induced by DCA analogs. Proteins were extracted from 2 week old soil grown Col-0 seedlings 48 hours after spray-treatment with compounds at the indicated concentrations (uM). Means and standard errors calculated from 3 independent replicates. (c) HpNoco2 growth inhibition assay. 2 week old soil grown Col-0 seedlings were spray-infected with HpNoco2 48 hours after treatment with varying concentrations (uM) of each DCA analog. Seedlings were assayed 7 dpi for Peronospora growth (spore counts). 100% inhibition=0 spores. Assay was repeated three times with similar results.
DCA induces disease resistance. Time-course experiment with 2-week old Col-0 seedlings that were sprayed with 100 uM of the respective compounds at the indicated times prior to HpNoco2 (3×10^4 spores/ml) spray-infection. Spores were counted 7 dpi.

The test system of series [3] is −333_CaBP22::GUS. Description: −333_CaBP22::GUS reporter induction in one-week old seedlings grown in liquid medium (Xgluc staining / MUG assay). The conditions noted are these: for EC50: −333_CaBP22::GUS, MUG assay, read-out: EC50 value (effective concentration leading to a half-maximal response). It counts as in vivo, Arabidopsis. As for the experimental part:
A: Structure of DCA. B/C: Dose-response curves. One-week old −333_CaBP22::GUS seedlings were grown in liquid medium and incubated with the indicated concentrations of DCA (67) or SA for 24 h prior to Xgluc staining (blue, panel B) or quantitative assays for GUS activity using 4-methyl umbelliferyl-glucuronide (MUG, panel C).
LURP expression appears to be controlled by a multitude of defense regulators including AtWRKY70 and so far unknown transcription factors. […] Thus LURP-promoter/reporter systems are useful tools to screen for defense inducing chemicals. A 333_CaBP22::GUS line was used to screen chemical libraries of the Center for Plant Cell Biology at UC-Riverside for substances that induce activity of this reporter in the absence of pathogens. One week old seedlings of the reporter line grown in 96 well plates with liquid MS medium were treated with library chemicals at a final concentration of 4-20 microM in 0.001% DMSO and stained with X-Gluc to detect GUS activity 24 h later (FIG. 2). The library chemicals were transferred from 384 well plates to the 96 well screening plates by a “96 pin-tool” using a pipetting robot.
Most of the identified −333_CaBP22::GUS-inducers are structurally related to the defense hormone salicylic acid (SA). One of these compounds, 3,5-Dichloroanthranilic acid (DCA, FIG. 3A) to be particularly efficient in inducing −333_CaBP22::GUS expression. The chemical structure of this compound was confirmed by NMR and MS analyses. […] Thus, DCA has a high specificity for its cellular target. Consistent with this the EC50 value (effective concentration leading to a half-maximal response) of DCA is 6 uM (FIG. 3C), which is lower than the published EC50 value for PR1 induction by SA and its functional analog INA (65 and 10 uM, respectively; Wendehenne et al., 1998; Pillonel, 2001).

Series [4] relates to −333_CaBP22::GUS. As to the kind of experiment: GUS activity after spray-treatment of soil grown seedlings (structure-activity analysis, FIG. 5B, FIG. 8B). In kind it is in vivo, Arabidopsis. How it is done:
(A) Chemical structures of DCA analogs analyzed. […] Proteins were extracted from 2 week old soil grown Col-0 seedlings 48 hours after spray-treatment with compounds at the indicated concentrations (uM). Means and standard errors calculated from 3 independent replicates. (c) HpNoco2 growth inhibition assay. 2 week old soil grown Col-0 seedlings were spray-infected with HpNoco2 48 hours after treatment with varying concentrations (uM) of each DCA analog. Seedlings were assayed 7 dpi for Peronospora growth (spore counts). 100% inhibition=0 spores.
DCA and the known SA-analog INA are structurally related. To compare their activities and to gain further understanding on structural features required for their defense inducing activities, a structure function analysis (SAR) was performed using multiple derivatives of DCA and INA (FIG. 8A).

Series [5] deals with cluster of 131 Arabidopsis genes (Table 1). Description: Affymetrix ATH1 whole genome microarray of induced transcriptional responses. In kind it is in vivo. How it is done: This transient activity of DCA functionally discriminates it from INA and allows us to precisely correlate molecular event, such as transcriptional changes, with disease resistance. Therefore we performed a set of microarray experiments with Affymetrix ATH1 Arabidopsis whole genome chips profiling DCA- and INA-induced transcriptional responses at 48 h and 6 d post treatment. […] The reference accession numbers and information can be used by one of skill in the art to obtain the sequences and additional information from public databases available at the time of filing.

The mark [6] stands for this setting: most Arabidopsis defense signaling mutants.

On to `Nc1c(Cl)cc(Cl)cc1C(=O)O` [DCA, 3,5-Dichloroanthranilic acid], for which the “concentrations causing cell death (reduced GUS staining)” value in series [1] is reported as “higher than 100 μM”. Besides, the “endogenous CaBP22 gene expression” value in the series on CaBP22 (10 uM, wild type) is given as “activates”. For the same compound, in the series with CaBP22 (setting [6]), the “CaBP22 expression in most mutants with deficiencies in defense signaling” value is on record as “wild type expression”. In addition, the “effect of nahG transgene on induction of CaBP22” value in the series on CaBP22 (nahG (SA-catabolizing enzyme)) is “does not suppress”. Further, the “CaBP22-induction in wrky70 mutant” value with CaBP22 (wrky70 mutant) is “blocked”. Also, the WRKY70 expression result in the series with WRKY70 (10 uM, wild type) is on record as “activates”. Besides, in the series on WRKY70 (setting [6]), the “WRKY70 expression in most mutants with deficiencies in defense signaling” value is listed as “wild type expression”. Also, the “effect of nahG transgene on induction of WRKY70” value in the series on WRKY70 (nahG (SA-catabolizing enzyme)) was “does not suppress”. For the same compound, in series [2] (100 uM pre-treatment 24 h, npr1 mutant), the “resistance to HpNoco2 in npr1 mutant” value is recorded as “slight reduction”. For the same compound, in series [2] (100 uM pre-treatment 24 h, wrky70 mutant), the “resistance to HpNoco2 in wrky70 mutant” value was “partially reduced”. Moreover, in series [2] (100 uM, time-course, FIG. 9), the “duration of defense-inducing activity” value is reported as “only transiently active” and the “time after treatment by which strong disease resistance is reached” value is recorded as no more than 1 h. Also, the “efficiency in inducing resistance to HpNoco2 (defense inducing activity)” value in series [2] (infection 48 hours after treatment, structure-activity analysis) is “nearly identical; also recorded: equally efficient”. The “concentration giving efficient induction of disease resistance against virulent Peronospora (as low as)” value in series [2] (sprayed on aerial parts of soil grown seedlings 24 h prior to HpNoco2) stood at 10 µM. For the same compound, the EC50 in the series with −333_CaBP22::GUS [3] (Arabidopsis thaliana, 24 h, 24 h) turned out to be 6 µM. For the same compound, the “concentration at which active as inducer of −333_CaBP22::GUS” value with −333_CaBP22::GUS [3] (liquid medium, 24 h, FIG. 3B) is 0.1 µM. Further, the “active at x-fold lower concentrations than SA (−333_CaBP22::GUS induction)” value in the series with −333_CaBP22::GUS [3] (versus SA, FIG. 3B) is recorded as 10 fold. Further, the EC50 with −333_CaBP22::GUS [3] (24 h) worked out at 7 µM. The “efficiency in inducing −333_CaBP22::GUS expression (defense inducing activity)” value in the series with −333_CaBP22::GUS [4] (48 hours after spray-treatment, structure-activity analysis) is “nearly identical”. For the same compound, the “reporter gene expression after spraying aerial parts” value with −333_CaBP22::GUS [4] (spraying of 10-100 uM) is “induced reporter gene expression”. Further, the “up-regulation of cluster of 131 genes at 48 h post treatment” value in series [5] (48 h post treatment) is “significantly up-regulated”. In addition, the “up-regulation of cluster of 131 genes at 6 d post treatment” value in series [5] (6 d post treatment) is “not at 6 d post DCA treatment”.
